This is an account of results in US11365188B2, “JAK inhibitors” (priority 2018, dated 2022).

What all share (format): biochemical
Assay [1] has as its target JAK2 (Homo sapiens, UniProt O60674). Put plainly: JAK2 Assay (Caliper EZ Reader, fluoresceinated peptide). The settings on record: ATP 11.4 μM; JAK2 0.25 nM; 15 minutes at room temperature; read-out: JAK2 inhibition. The procedure:
JAK2 Assay 384-well plates in the left foot butoxy measured progress. The final assay volume was 25 μL, 250 nL 100× compounds, 10 μL enzyme mix and 15 μL substrate mix (fluoresceinated peptide and ATP) in assay buffer (50 mM HEPES (pH 7.5), 10 mM MgCl2, 0.01% TritonX-100, 0.01% Brij35, 0.5 mM EGTA and 2 mM DTT) prepared as test compound By mixing the JAK2 with substrates and test compounds to start the reaction. The reaction mixture was incubated for 15 minutes at room temperature, then added 30 μL stop buffer for each sample to terminate the reaction with 50 mM EDTA. After termination of the kinase reaction, the proportion of phosphorylated product was determined as a fraction of total peptide substrate using Caliper EZ Reader 1 Inhibition data were calculated by comparison with 100% of the reaction mixture without enzyme inhibition and vehicle-only reaction mixture billion % inhibition compared. The final concentration of reagents in the assays is: ATP, 11.4 μM; JAK2 fluorescent peptide (5-FAM-EEPLYWSFPAKKK-CONH2), 3 μM; JAK2, 0.25 nM; and DMSO, 1%. Dose response curve were generated to determine the concentration required for IC50 of JAK2 activity.

The target of assay [2] is T1, JAK3 (Homo sapiens, UniProt P52333).
T1 sequence (P52333 1-1124): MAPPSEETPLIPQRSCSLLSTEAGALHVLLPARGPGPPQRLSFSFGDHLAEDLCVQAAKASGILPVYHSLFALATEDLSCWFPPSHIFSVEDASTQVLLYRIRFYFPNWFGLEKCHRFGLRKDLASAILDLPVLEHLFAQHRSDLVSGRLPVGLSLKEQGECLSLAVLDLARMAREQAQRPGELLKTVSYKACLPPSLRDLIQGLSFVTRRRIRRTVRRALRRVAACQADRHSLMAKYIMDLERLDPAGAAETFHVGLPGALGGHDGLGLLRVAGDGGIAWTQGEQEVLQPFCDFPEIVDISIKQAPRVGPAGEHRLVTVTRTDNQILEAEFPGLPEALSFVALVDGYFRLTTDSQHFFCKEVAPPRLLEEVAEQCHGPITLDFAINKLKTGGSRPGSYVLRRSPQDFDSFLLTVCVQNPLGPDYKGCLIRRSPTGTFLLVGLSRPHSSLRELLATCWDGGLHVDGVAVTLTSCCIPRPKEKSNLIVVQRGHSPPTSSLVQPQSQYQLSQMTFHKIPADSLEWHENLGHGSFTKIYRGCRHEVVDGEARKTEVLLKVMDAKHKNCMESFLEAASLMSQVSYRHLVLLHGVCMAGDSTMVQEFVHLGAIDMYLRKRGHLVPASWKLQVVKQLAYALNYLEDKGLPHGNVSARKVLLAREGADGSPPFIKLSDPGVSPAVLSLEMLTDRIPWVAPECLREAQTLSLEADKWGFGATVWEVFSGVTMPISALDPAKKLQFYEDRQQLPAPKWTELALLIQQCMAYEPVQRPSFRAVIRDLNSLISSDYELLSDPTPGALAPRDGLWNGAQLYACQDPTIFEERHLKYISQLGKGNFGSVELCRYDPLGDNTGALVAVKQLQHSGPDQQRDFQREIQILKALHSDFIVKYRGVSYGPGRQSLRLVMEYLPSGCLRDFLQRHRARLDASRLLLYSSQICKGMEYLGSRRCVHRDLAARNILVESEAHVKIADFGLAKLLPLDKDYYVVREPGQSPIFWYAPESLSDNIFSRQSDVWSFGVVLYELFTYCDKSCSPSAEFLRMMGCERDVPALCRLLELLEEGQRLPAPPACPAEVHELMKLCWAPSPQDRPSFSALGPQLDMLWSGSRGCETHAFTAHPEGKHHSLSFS
Put plainly: JAK3 Assay (Caliper EZ Reader, fluoresceinated peptide). As to conditions: ATP 3.5 μM; JAK3 0.5 nM; 30 minutes at room temperature; read-out: JAK3 inhibition. The procedure:
JAK3 Assay 384-well plates in the left foot butoxy measured progress. The final assay volume was 25 μL, 250 nL 100× compounds, 10 μL enzyme mix and 15 μL substrate mix (fluoresceinated peptide and ATP) in assay buffer (50 mM HEPES (pH 7.5), 10 mM MgCl2, 0.01% TritonX-100, 0.01% Brij35, 0.5 mM EGTA and 2 mM DTT) prepared as test compound. By mixing the JAK3 with substrates and test compounds to start the reaction. The reaction mixture was incubated for 30 minutes at room temperature, then added 30 μL stop buffer for each sample to terminate the reaction with 50 mM EDTA. After termination of the kinase reaction, the proportion of phosphorylated product was determined as a fraction of total peptide substrate using Caliper EZ Reader II. Inhibition data were calculated by comparison with 100% of the reaction mixture without enzyme inhibition and vehicle-only reaction mixture billion % inhibition compared. The final concentration of reagents in the assays is: ATP, 3.5 μM; JAK3 fluorescent peptide (5-FAM-EEPLYWSFPAKKK-CONH2), 3 μM; JAK3, 0.5 nM; and DMSO, 1%. Dose response curve were generated to determine the concentration required for IC50 of JAK3 activity.

Assay [3] has as its target JAK1 (Homo sapiens, UniProt P23458). Put plainly: JAK Kinase Assay (JAK1, Caliper EZ Reader, fluoresceinated peptide). As to conditions: ATP 76.5 μM; JAK1 10 nM; 120 minutes at room temperature; read-out: JAK1 inhibition.

JAK2, sequence (O60674 whole entry, species assumed): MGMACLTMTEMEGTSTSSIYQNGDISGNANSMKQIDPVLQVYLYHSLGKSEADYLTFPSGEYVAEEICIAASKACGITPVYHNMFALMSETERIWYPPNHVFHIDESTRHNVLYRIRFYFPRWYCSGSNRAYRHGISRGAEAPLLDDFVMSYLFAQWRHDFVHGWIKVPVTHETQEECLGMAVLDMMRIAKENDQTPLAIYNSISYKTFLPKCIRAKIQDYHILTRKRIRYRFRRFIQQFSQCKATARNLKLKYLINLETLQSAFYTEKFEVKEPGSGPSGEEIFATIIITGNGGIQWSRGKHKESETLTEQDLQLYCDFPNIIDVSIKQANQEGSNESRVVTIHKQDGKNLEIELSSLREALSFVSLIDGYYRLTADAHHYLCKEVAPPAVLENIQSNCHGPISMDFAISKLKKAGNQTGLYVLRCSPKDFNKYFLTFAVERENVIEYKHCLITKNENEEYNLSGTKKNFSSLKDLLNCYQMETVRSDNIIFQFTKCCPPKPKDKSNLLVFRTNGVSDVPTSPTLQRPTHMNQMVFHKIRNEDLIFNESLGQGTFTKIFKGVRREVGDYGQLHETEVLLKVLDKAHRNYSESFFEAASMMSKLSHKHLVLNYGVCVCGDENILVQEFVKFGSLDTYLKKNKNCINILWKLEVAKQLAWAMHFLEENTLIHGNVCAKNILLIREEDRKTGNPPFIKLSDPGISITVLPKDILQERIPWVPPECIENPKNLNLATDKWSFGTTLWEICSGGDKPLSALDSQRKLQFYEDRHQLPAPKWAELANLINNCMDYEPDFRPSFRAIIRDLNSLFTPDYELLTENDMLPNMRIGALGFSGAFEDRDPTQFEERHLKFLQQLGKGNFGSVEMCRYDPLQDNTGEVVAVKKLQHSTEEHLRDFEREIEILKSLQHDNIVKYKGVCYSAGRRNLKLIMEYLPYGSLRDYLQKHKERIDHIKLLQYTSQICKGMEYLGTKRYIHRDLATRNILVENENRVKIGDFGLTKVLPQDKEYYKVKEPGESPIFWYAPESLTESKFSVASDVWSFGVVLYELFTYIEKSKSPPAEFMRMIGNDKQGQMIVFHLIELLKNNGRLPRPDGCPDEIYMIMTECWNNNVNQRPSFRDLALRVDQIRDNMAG
JAK1, sequence (P23458 whole entry, species assumed): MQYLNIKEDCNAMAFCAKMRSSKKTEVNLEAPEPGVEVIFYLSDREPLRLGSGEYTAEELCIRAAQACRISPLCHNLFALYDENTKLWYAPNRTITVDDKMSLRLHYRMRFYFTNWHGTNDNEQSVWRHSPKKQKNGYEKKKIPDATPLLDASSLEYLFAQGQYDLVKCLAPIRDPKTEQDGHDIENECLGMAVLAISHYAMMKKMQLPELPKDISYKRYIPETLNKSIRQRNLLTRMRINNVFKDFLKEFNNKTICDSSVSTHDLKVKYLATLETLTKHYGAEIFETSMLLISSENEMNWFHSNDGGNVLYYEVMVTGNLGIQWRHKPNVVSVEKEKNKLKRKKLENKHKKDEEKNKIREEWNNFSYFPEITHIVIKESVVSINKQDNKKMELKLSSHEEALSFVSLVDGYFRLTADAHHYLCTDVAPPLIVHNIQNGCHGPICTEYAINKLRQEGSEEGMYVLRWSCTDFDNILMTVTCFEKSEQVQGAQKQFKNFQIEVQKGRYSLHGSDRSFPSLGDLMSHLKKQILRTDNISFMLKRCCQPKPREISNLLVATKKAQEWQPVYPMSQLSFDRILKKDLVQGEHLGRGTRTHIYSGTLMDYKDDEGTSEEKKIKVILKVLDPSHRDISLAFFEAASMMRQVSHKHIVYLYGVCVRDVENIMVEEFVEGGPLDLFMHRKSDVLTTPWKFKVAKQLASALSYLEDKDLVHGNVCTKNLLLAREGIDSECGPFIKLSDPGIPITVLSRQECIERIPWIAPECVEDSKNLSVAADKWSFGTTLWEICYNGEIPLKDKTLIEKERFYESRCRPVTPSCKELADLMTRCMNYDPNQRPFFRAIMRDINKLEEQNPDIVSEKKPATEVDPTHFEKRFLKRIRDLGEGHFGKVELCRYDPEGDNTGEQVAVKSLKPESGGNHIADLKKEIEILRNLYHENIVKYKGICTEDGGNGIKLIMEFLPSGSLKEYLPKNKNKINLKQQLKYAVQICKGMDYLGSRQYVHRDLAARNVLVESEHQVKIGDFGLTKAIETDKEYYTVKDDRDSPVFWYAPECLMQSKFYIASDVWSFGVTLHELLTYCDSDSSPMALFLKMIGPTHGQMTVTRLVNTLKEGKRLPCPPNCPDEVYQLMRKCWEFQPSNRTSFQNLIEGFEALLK

In the case of `CN(c1ncnc2[nH]ccc12)C1CC2(C1)CN(C(=O)c1cc[nH]n1)C2` [Compound 45, (6-(methyl(7H-pyrrolo[2,3-d]pyrimidin-4-yl)amino)-2-azaspiro[3.3]heptan-2-yl)(1H-pyrazol-3-yl)methanone], the figures for the IC50 in assay [1], in assay [2] and in assay [3] were 1000 to 10000 nM, at least 10000 nM and 1000 to 10000 nM, respectively.
As to `C#Cc1ccc(C(=O)N2CC3(CC(N(C)c4ncnc5[nH]ccc45)C3)C2)cc1Cl` [Compound 46, (3-chloro-4-ethynylphenyl)(6-(methyl(7H-pyrrolo[2,3-d]pyrimidin-4-yl)amino)-2-azaspiro[3.3]heptan-2-yl)methanone], the results for the IC50 in assay [1], in assay [2] and in assay [3] were 100 to 1000 nM, at least 10000 nM and at most 10 nM, respectively.
On the same counts, the results for `C#Cc1ccc(C(=O)N2CC3(CC(N(C)c4ncnc5[nH]ccc45)C3)C2)cc1F` [Compound 47, (4-ethynyl-3-fluorophenyl)(6-(methyl(7H-pyrrolo[2,3-d]pyrimidin-4-yl)amino)-2-azaspiro[3.3]heptan-2-yl)methanone] are 100 to 1000 nM, 1000 to 10000 nM and at most 10 nM.
With `C#Cc1ccc(C(=O)N2CC3(CC(N(C)c4ncnc5[nH]ccc45)C3)C2)nc1` [Compound 48, (5-ethynylpyridin-2-yl)(6-(methyl(7H-pyrrolo[2,3-d]pyrimidin-4-yl)amino)-2-azaspiro[3.3]heptan-2-yl)methanon], the results for the IC50 in assay [1], in assay [2] and in assay [3] were 1000 to 10000 nM, 1000 to 10000 nM and 10 to 100 nM, respectively.
Regarding `CN(c1ncnc2[nH]ccc12)C1CC2(C1)CN(C(=O)c1ccc3c(c1)ncn3C)C2` [Compound 49, (6-(methyl(7H-pyrrolo[2,3-d]pyrimidin-4-yl)amino)-2-azaspiro[3.3]heptan-2-yl)(1-methyl-1H-benzo[d]imidazol-5-yl)methanone], the IC50 in assay [1] was 1000 to 10000 nM; in assay [2], at least 10000 nM; in assay [3], 1000 to 10000 nM.
As to `CN(c1ncnc2[nH]ccc12)C1CC2(C1)CN(C(=O)c1ccn(C)n1)C2` [Compound 50, (6-(methyl(7H-pyrrolo[2,3-d]pyrimidin-4-yl)amino)-2-azaspiro[3.3]heptan-2-yl)(1-methyl-1H-pyrazol-3-yl)methanone], the IC50 in assay [1] was at least 10000 nM; in assay [2], at least 10000 nM; in assay [3], 100 to 1000 nM.
For `CN(c1ncnc2[nH]ccc12)C1CC2(C1)CN(C(=O)c1ccc(-c3ccn(C)n3)cc1)C2` [Compound 68], the IC50 in assay [1] fell in the range of 1000 to 10000 nM; in assay [2], 1000 to 10000 nM; in assay [3] it was 100 to 1000 nM.
With `CN(c1ncnc2[nH]ccc12)C1CC2(C1)CN(C(=O)c1cnn(C3CC3)c1)C2` [Compound 69, (1-Cyclopropyl-1H-pyrazol-4-yl)-{6-[methyl-(7H-pyrrolo[2,3-d]pyrimidin-4-yl)-amino]-2-aza-spiro[3.3]hept-2-yl}-methanone], the IC50 in assay [1] is 1000 to 10000 nM; in assay [2], at least 10000 nM; in assay [3], 100 to 1000 nM.
In the same order, the values of `COC(=O)N1CCC2(CCC(N(C)c3ncnc4[nH]ccc34)CC2)CC1` [Compound 73, Methyl 9-(methyl(7H-pyrrolo[2,3-d]pyrimidin-4-yl)amino)-3-azaspiro[5.5]undecane-3-carboxylate] are 100 to 1000 nM, 100 to 1000 nM and at most 10 nM.
In the same order, the values of `CC(=O)N1CCC2(CCC(N(C)c3ncnc4[nH]ccc34)CC2)CC1` [Compound 75, 1-{9-[Methyl-(7H-pyrrolo[2,3-d]pyrimidin-4-yl)-amino]-3-aza-spiro[5.5]undec-3-yl}-ethanone] are 10 to 100 nM, 100 to 1000 nM and 10 to 100 nM.
In the case of `CCS(=O)(=O)N1CCC2(CCC(N(C)c3ncnc4[nH]ccc34)CC2)CC1` [Compound 76, (3-Ethanesulfonyl-3-aza-spiro[5.5]undec-9-yl)-methyl-(7H-pyrrolo[2,3-d]pyrimidin-4-yl)-amine], the IC50 in assay [1] was in the range of 100 to 1000 nM; in assay [2], 1000 to 10000 nM; in assay [3] it was 100 to 1000 nM.
As for `CN(c1ncnc2[nH]ccc12)C1CCC2(CC1)CCN(C(=O)CO)CC2` [Compound 77, 2-Hydroxy-1-{9-[methyl-(7H-pyrrolo[2,3-d]pyrimidin-4-yl)-amino]-3-aza-spiro[5.5]undec-3-yl}-ethanone], the IC50 in assay [1] was 10 to 100 nM; in assay [2] it was 100 to 1000 nM; in assay [3], 10 to 100 nM.
Regarding `CCC(=O)N1CCC2(CCC(N(C)c3ncnc4[nH]ccc34)CC2)CC1` [Compound 78, 1-{9-[Methyl-(7H-pyrrolo[2,3-d]pyrimidin-4-yl)-amino]-3-aza-spiro[5.5]undec-3-yl}-propan-1-one], the results for the IC50 in assay [1], in assay [2] and in assay [3] were 100 to 1000 nM, 1000 to 10000 nM and 100 to 1000 nM, respectively.
Turning to `CN(c1ncnc2[nH]ccc12)C1CCC2(CC1)CCN(CC(F)(F)F)CC2` [Compound 79, Methyl-(7H-pyrrolo[2,3-d]pyrimidin-4-yl)-[3-(2,2,2-trifluoro-ethyl)-3-aza-spiro[5.5]undec-9-yl]-amine], the IC50 in assay [1], in assay [2] and in assay [3] was 100 to 1000 nM throughout.
Turning to `CN(c1ncnc2[nH]ccc12)C1CCC2(CC1)CCN(C(=O)c1cccnc1)CC2` [Compound 80, {9-[Methyl-(7H-pyrrolo[2,3-d]pyrimidin-4-yl)-amino]-3-aza-spiro[5.5]undec-3-yl}-pyridin-3-yl-methanone], the IC50 in assay [1], in assay [2] and in assay [3] was 100 to 1000 nM throughout.
Consider `CN(c1ncnc2[nH]ccc12)C1CCC2(CC1)CCN(C(=O)CCC#N)CC2` [Compound 81, 4-{9-[Methyl-(7H-pyrrolo[2,3-d]pyrimidin-4-yl)-amino]-3-aza-spiro[5.5]undec-3-yl}-4-oxo-butyronitrile], for which the IC50 in assay [1], in assay [2] and in assay [3] was 100 to 1000 nM throughout.
Regarding `CN(c1ncnc2[nH]ccc12)C1CCC2(CC1)CCN(C(=O)C1CCC(=O)CC1)CC2` [Compound 82, 4-{9-[Methyl-(7H-pyrrolo[2,3-d]pyrimidin-4-yl)-amino]-3-aza-spiro[5.5]undecane-3-carbonyl}-cyclohexanone], the IC50 in assay [1] fell in the range of 1000 to 10000 nM; in assay [2], 1000 to 10000 nM; in assay [3], 100 to 1000 nM.
With `CN(c1ncnc2[nH]ccc12)C1CCC2(CC1)CCN(C(=O)c1cccc(C(F)(F)F)c1)CC2` [Compound 83, {9-[Methyl-(7H-pyrrolo[2,3-d]pyrimidin-4-yl)-amino]-3-aza-spiro[5.5]undec-3-yl}-(3-trifluoromethyl-phenyl)-methanone], the IC50 in assay [1] was 100 to 1000 nM; in assay [2], 1000 to 10000 nM; in assay [3] it was 100 to 1000 nM.
